Key:
Rat Primary Neuron = Rat Primary Neuron EC50; assay type: cell-based
[1] = tested on: experimental stroke model in mice (MCAO); assay: Long-term outcome after MCAO: Garcia score; assay type: in vivo, mouse; conditions: 40 mg/kg i.v. 2 hours post reperfusion
Protocol: (§1) Long-term outcome experiment: 40 mg/kg cmpd. 1 delivered I.V. 2 hours post reperfusion, same as short term, compared to vehicle (10% solutol/90% PEG400). 45 mice operated, and 27 survived, mice were sacrificed on day 30.

Human 12/15-LOX E. coli = Human 12/15-LOX E. coli (Homo sapiens (Human), UniProt P16050); assay: Human 12/15-LOX E. coli IC50; assay type: biochemical
[2] = Metabolic stability of exemplified compounds (Example 4); assay type: in vitro ADME
COX-2 = COX-2 (Homo sapiens (Human), UniProt P35354); assay: Selectivity versus COX-2; assay type: biochemical
h12/15-LOX = h12/15-LOX (Homo sapiens (Human), UniProt P16050); assay: 12/15-LOX enzyme inhibition IC50 assay (Examples 1 and 2); assay type: biochemical
Protocol: Enzyme was then added to the cuvettes. […] The % inhibition for each test compound concentration were calculated as follows: […]

[3] = tested on: experimental stroke model in mice (MCAO); assay: Long-term outcome after MCAO: Y maze; assay type: in vivo, mouse; conditions: 40 mg/kg i.v. 2 hours post reperfusion, versus vehicle
Protocol: as §1

12-LOX = 12-LOX (Homo sapiens (Human), UniProt P18054); assay: Selectivity versus 12-LOX; assay type: biochemical
[4] = tested on: experimental stroke model in mice (MCAO); assay: Long-term outcome after MCAO: adhesive (tape) removal test; assay type: in vivo, mouse; conditions: 40 mg/kg i.v. 2 hours post reperfusion
Protocol: as §1

Sequence of h12/15-LOX (P16050 whole entry): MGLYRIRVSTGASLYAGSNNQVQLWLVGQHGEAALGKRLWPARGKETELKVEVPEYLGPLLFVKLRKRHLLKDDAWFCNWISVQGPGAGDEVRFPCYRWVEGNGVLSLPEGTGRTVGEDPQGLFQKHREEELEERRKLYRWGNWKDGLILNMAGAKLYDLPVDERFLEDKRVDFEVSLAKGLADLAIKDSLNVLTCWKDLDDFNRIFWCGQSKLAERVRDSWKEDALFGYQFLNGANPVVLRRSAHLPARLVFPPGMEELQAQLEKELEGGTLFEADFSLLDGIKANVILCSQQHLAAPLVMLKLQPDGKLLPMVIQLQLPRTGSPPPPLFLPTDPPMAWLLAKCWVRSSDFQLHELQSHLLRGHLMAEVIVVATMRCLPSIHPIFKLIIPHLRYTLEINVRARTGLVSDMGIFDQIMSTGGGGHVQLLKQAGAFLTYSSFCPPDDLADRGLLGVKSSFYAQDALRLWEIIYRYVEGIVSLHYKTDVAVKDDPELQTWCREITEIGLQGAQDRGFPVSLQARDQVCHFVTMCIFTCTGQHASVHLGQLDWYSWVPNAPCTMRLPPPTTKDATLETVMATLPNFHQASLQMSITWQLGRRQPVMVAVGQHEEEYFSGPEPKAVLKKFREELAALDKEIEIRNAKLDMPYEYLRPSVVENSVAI
Sequence of Human 12/15-LOX E. coli (P16050 whole entry): as above
Sequence of 12-LOX (P18054 whole entry, the tested form may be a part): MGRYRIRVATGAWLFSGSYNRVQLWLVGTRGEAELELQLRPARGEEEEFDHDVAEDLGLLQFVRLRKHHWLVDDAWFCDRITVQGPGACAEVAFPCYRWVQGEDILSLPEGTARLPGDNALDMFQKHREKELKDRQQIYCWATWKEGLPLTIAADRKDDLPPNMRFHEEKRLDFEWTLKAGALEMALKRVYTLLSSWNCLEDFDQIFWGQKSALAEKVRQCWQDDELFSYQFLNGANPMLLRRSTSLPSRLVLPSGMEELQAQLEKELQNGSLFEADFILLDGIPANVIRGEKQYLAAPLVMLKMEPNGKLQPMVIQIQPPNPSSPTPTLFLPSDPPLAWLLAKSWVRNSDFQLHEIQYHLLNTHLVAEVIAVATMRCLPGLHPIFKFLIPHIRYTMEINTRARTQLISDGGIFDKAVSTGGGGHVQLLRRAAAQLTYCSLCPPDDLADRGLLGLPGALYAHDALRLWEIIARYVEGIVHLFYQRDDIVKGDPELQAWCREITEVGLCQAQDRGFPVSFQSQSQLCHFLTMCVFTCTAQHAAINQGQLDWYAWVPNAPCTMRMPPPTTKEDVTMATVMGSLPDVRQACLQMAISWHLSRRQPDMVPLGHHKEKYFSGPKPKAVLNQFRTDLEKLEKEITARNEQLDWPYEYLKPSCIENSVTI
Sequence of COX-2 (P35354 18-604): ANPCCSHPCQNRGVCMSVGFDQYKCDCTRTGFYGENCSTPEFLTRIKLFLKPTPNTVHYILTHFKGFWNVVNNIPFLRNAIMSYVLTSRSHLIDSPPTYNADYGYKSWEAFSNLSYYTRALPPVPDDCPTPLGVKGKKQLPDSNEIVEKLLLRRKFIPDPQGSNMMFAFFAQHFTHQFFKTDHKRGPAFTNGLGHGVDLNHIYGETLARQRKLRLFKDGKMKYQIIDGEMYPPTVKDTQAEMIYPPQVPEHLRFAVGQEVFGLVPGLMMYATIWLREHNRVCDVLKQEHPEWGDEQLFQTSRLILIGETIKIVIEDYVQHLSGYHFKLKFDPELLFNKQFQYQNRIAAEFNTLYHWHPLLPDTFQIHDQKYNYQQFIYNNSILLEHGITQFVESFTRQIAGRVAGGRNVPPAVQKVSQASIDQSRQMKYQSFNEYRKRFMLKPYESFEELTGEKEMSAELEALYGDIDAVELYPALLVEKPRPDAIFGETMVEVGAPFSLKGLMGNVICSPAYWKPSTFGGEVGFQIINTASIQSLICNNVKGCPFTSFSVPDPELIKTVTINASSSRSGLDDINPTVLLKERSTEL

For `CNc1oc(-c2cc(Cl)cc(Cl)c2Cl)nc1C#N` [Compound 1, 5-(methylamino)-2-(2,3,5-trichlorophenyl) oxazole-4-carbonitrile], the EC50 (Rat Primary Neuron) was 9500 nM, the “Garcia score, improvement compared to vehicle treatment” value ([1]; Day 3) was 23.8% and the “Garcia score, improvement compared to vehicle treatment” value ([1]; Week 4) was 68.5%. For the same compound, the “Human 12/15-LOX E. coli % max” value (Human 12/15-LOX E. coli) was 88%, the IC50 (Human 12/15-LOX E. coli) was 110 nM and the “Extr (EH)” value ([2]; Human liver microsomes) was “** (“**” 50-100%)”. The microsomal CLint ([2]; Human liver microsomes) was 20 to 100 µL/min/mg, the “Extr (EH)” value ([2]; Mouse liver microsomes) was “** (“**” 50-100%)” and the microsomal CLint ([2]; Mouse liver microsomes) was 20 to 100 µL/min/mg. The “Extr (EH)” value ([2]; Rat liver microsomes) was “* (“*” <50%)”, the microsomal CLint ([2]; Rat liver microsomes) was less than 20 µL/min/mg and the “selectivity over COX-2” value (COX-2) was greater than 400 fold. For the same compound, the IC50 (h12/15-LOX) was 120 nM, the Emax (h12/15-LOX; h12/15-LOX, read-out: Max % inhibition) was 94% and the “Y maze % alternation” value [3] was “no significant differences”. For the same compound, the “Y maze entry number” value [3] was “no difference between treatment groups”, the “selectivity over 12-LOX” value (12-LOX) was greater than 400 fold and the “Adhesive (tape) removal test, improvement compared to vehicle treatment” value ([4]; Week 1) was 65.6%. The “Adhesive (tape) removal test, improvement compared to vehicle treatment” value ([4]; Week 4) was 93.3%.
